In US20250361230A1, “LATS Inhibitors and Uses Thereof” (The USA, as Represented by the Secretary, Dept. of Heath …, priority 2022, published 2025):

What was measured:
Assay type in all cases: biochemical
[1] = molecular target: T1, LATS1 (Homo sapiens, UniProt O95835); experiment: RBC HotSpot kinase assay (33P-ATP, P81 filter-binding), LATS1; details: Table 28, biochemical kinase assay; read-out: LATS1 IC50
T1 sequence (O95835 1-1130): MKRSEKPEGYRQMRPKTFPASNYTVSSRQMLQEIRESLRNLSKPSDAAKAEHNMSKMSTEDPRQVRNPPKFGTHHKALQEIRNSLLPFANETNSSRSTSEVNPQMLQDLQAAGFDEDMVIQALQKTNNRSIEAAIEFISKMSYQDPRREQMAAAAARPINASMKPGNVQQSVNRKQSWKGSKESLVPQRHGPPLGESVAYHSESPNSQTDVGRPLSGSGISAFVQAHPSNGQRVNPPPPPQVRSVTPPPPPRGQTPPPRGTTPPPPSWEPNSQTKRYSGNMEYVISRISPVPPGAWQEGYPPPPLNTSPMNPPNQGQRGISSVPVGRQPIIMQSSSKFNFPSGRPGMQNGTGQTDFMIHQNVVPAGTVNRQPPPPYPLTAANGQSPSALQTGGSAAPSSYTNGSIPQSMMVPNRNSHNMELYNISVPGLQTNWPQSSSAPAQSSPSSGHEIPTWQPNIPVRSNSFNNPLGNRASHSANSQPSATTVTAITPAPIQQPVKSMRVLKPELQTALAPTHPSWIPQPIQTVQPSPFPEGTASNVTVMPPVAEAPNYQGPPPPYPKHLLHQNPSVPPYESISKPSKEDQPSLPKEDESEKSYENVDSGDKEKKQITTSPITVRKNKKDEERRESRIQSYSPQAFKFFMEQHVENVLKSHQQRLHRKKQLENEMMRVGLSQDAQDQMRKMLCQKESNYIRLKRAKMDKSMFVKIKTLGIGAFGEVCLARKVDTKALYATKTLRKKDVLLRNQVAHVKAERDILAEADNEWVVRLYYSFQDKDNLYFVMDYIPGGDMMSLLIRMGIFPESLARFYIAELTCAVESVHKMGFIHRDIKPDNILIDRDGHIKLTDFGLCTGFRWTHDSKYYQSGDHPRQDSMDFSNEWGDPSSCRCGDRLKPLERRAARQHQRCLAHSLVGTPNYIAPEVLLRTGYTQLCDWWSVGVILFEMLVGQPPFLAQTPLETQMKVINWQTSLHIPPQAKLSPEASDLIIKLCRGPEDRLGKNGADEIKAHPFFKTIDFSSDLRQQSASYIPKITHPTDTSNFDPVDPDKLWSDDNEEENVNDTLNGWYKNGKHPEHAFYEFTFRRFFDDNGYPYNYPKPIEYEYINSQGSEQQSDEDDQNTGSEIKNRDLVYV
Summary of the method: (§1)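 Radiometric 33P-ATP kinase reaction in 20 mM Hepes pH 7.5, 10 mM MgCl2, 1 mM EGTA, 0.01% Brij35, 0.02 mg/ml BSA, 0.1 mM Na3VO4, 2 mM DTT, 1% DMSO. Compound preincubated with kinase and substrate 20 min, then 2 h at room temperature; P81 filter-binding read-out. IC50 (nM) from 10-point singlet curves.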

[2] = molecular target: T2, LATS2 (Homo sapiens, UniProt Q9NRM7); experiment: RBC HotSpot kinase assay (33P-ATP, P81 filter-binding), LATS2; details: Table 28, biochemical kinase assay; read-out: LATS2 IC50
T2 sequence (Q9NRM7 1-1088): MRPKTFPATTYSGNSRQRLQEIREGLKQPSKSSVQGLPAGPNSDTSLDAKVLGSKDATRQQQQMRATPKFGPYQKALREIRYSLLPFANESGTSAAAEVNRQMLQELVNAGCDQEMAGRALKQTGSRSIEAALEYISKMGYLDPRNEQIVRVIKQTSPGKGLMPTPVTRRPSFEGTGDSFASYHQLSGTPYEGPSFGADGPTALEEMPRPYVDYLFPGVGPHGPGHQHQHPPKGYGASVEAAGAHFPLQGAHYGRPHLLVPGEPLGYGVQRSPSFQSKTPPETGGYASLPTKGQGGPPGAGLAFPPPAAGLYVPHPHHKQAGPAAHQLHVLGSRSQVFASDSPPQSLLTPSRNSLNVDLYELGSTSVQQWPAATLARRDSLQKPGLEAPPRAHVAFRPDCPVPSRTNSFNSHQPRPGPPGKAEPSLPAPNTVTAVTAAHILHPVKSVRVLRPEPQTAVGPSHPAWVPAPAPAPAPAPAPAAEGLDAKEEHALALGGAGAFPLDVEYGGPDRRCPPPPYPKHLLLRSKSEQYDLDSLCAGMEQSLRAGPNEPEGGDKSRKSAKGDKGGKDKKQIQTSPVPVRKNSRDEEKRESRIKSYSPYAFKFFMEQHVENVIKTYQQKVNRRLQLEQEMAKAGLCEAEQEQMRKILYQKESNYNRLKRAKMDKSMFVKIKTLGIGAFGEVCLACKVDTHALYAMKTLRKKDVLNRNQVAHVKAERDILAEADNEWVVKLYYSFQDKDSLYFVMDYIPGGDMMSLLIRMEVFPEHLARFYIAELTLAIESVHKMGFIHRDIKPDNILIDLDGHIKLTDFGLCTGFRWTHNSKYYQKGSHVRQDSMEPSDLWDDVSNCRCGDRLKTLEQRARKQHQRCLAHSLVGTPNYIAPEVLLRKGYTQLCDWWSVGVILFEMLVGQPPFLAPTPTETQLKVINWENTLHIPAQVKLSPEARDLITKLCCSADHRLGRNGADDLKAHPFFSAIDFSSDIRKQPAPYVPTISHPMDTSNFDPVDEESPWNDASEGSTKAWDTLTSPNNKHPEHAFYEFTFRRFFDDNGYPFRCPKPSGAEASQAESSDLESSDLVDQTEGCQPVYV
Summary of the method: as §1

[3] = molecular target: AKT (Homo sapiens, UniProt P31749); experiment: RBC HotSpot kinase assay (33P-ATP, P81 filter-binding), AKT; details: Table 28, biochemical kinase assay; read-out: AKT IC50
Summary of the method: as §1

Chain of AKT (P31749 whole entry): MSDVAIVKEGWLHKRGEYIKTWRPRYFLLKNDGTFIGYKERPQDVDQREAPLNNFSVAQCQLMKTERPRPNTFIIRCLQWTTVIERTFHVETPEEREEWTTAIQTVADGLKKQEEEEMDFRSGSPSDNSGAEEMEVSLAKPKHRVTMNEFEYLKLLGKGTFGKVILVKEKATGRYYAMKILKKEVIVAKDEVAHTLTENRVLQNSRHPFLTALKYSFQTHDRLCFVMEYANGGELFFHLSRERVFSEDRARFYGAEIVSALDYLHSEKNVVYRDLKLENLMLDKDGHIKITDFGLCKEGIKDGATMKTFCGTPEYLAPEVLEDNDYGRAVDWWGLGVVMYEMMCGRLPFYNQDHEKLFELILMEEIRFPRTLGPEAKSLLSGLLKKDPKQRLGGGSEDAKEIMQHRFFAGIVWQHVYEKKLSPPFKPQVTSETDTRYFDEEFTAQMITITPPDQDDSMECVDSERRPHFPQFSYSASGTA

SMILES | IC50 [1] [nM] | IC50 [2] [nM] | IC50 [3] [nM]
c1cncc(-c2cc(-c3ccnc4[nH]ccc34)ccc2C2CCNCC2)c1 [Compound 154, 4-(4-(piperidin-4-yl)-3-(pyridin-3-yl)phenyl)-1H-pyrrolo[2,3-b]pyridine] | 87 | 48 | 1320
CC(C)(C)Nc1cc(-c2ccnc3[nH]cc(F)c23)ccc1C1CCNCC1 [Compound 156, N-(tert-butyl)-5-(3-fluoro-1H-pyrrolo[2,3-b]pyridin-4-yl)-2-(piperidin-4-yl)aniline] | 139 | 121 | 1120
CC(C)(C)Nc1cc(-c2ccnc3[nH]ccc23)ccc1C1CCNCC1 [Compound 157, N-(tert-butyl)-2-(piperidin-4-yl)-5-(1H-pyrrolo[2,3-b]pyridin-4-yl)aniline] | 216 | 109 | 1650
COCCN1CCC(c2ccc(-c3ccnc4[nH]cc(F)c34)cc2Cl)CC1 [Compound 158, 4-(3-chloro-4-(1-(2-methoxyethyl)piperidin-4-yl)phenyl)-3-fluoro-1H-pyrrolo[2,3-b]pyridine] | 29 | 56 | 1150
O=C(C1CC1)N1CCC(c2ccc(-c3ccnc4[nH]cc(F)c34)cc2Cl)CC1 [Compound 160, (4-(2-chloro-4-(3-fluoro-1H-pyrrolo[2,3-b]pyridin-4-yl)phenyl)piperidin-1-yl)(cyclopropyl)methanone] | 451 | 442 | > 10000
Clc1cc(-c2ccnc3[nH]ccc23)ccc1C1CCNCC1 [Compound 161, 4-(3-chloro-4-(piperidin-4-yl)phenyl)-1H-pyrrolo[2,3-b]pyridine] | 8.9 | 21 | 753
C[Si](C)(C)CCS(=O)(=O)N1CCC(c2ccc(-c3ccnc4[nH]cc(F)c34)cc2Cl)CC1 [Compound 162, 4-(3-chloro-4-(1-((2-(trimethylsilyl)ethyl)sulfonyl)piperidin-4-yl)phenyl)-3-fluoro-1H-pyrrolo[2,3-b]pyridine] | > 10000 | > 10000 | > 10000
CCOCCS(=O)(=O)N1CCC(c2ccc(-c3ccnc4[nH]cc(F)c34)cc2Cl)CC1 [Compound 164, 4-(3-chloro-4-(1-((2-ethoxyethyl)sulfonyl)piperidin-4-yl)phenyl)-3-fluoro-1H-pyrrolo[2,3-b]pyridine] | > 10000 | > 10000 | > 10000
O=C([C@@H]1CCCN1)N1CCC(c2ccc(-c3ccnc4[nH]cc(F)c34)cc2Cl)CC1 [Compound 166, (S)-4-(3-chloro-4-(1-prolylpiperidin-4-yl)phenyl)-3-fluoro-1H-pyrrolo[2,3-b]pyridine] | 10.7 | 15.5 | 1300
CC(C)(C)OC(=O)N1CCC(c2ccc(-c3ccnc4[nH]cc(F)c34)cc2Cl)CC1 [Compound 170, tert-butyl 4-(2-chloro-4-(3-fluoro-1H-pyrrolo[2,3-b]pyridin-4-yl)phenyl)piperidine-1-carboxylate] | > 10000 | > 10000 | > 10000
N#Cc1cc(C2CCNCC2)ccc1-c1ccnc2[nH]ccc12 [Compound 174, 5-(piperidin-4-yl)-2-(1H-pyrrolo[2,3-b]pyridin-4-yl)benzonitrile] | 4930 | 2410 | 9000
Cc1cc(C2CCNCC2)ccc1-c1ccnc2[nH]ccc12 [Compound 176, 4-(2-methyl-4-(piperidin-4-yl)phenyl)-1H-pyrrolo[2,3-b]pyridine] | 1100 | 2140 | > 10000
COc1cc(C2CCNCC2)ccc1-c1ccnc2[nH]ccc12 [Compound 179, 4-(2-methoxy-4-(piperidin-4-yl)phenyl)-1H-pyrrolo[2,3-b]pyridine] | 1080 | 1290 | 5660

Continued, values first:

IC50 [1] [nM] | IC50 [2] [nM] | IC50 [3] [nM] | SMILES
4.3 | 1 | 68 | NCc1ccc(-c2cc(-c3ccnc4[nH]ccc34)ccc2C2CCNCC2)cc1 [Compound 155, (2′-(piperidin-4-yl)-5′-(1H-pyrrolo[2,3-b]pyridin-4-yl)-[1,1′-biphenyl]-4-yl)methanamine]
174 | 139 | 8520 | CN(C)CCS(=O)(=O)N1CCC(c2ccc(-c3ccnc4[nH]cc(F)c34)cc2Cl)CC1 [Compound 159, 2-((4-(2-chloro-4-(3-fluoro-1H-pyrrolo[2,3-b]pyridin-4-yl)phenyl)piperidin-1-yl)sulfonyl)-N,N-dimethylethan-1-amine]
> 10000 | > 10000 | > 10000 | O=S(=O)(CCC1CC1)N1CCC(c2ccc(-c3ccnc4[nH]cc(F)c34)cc2Cl)CC1 [Compound 163, 4-(3-chloro-4-(1-((2-cyclopropylethyl)sulfonyl)piperidin-4-yl)phenyl)-3-fluoro-1H-pyrrolo[2,3-b]pyridine]
32.1 | 36.9 | 1510 | O=C([C@H]1CCCN1)N1CCC(c2ccc(-c3ccnc4[nH]cc(F)c34)cc2Cl)CC1 [Compound 165, (R)-4-(3-chloro-4-(1-prolylpiperidin-4-yl)phenyl)-3-fluoro-1H-pyrrolo[2,3-b]pyridine]
18 | 31 | 1520 | CN1CCC(c2ccc(-c3ccnc4[nH]cc(F)c34)cc2Cl)CC1 [Compound 167, 4-(3-chloro-4-(1-methylpiperidin-4-yl)phenyl)-3-fluoro-1H-pyrrolo[2,3-b]pyridine]
69 | 100 | 5400 | CC(=O)N1CCC(c2ccc(-c3ccnc4[nH]cc(F)c34)cc2Cl)CC1 [Compound 171, 1-(4-(2-chloro-4-(3-fluoro-1H-pyrrolo[2,3-b]pyridin-4-yl)phenyl)piperidin-1-yl)ethan-1-one]
56 | 142 | 7000 | c1cc(-c2ccc(C3CCNCC3)cn2)c2cc[nH]c2n1 [Compound 175, 4-(5-(piperidin-4-yl)pyridin-2-yl)-1H-pyrrolo[2,3-b]pyridine]
63 | 71 | 640 | c1cc(-c2ccc(C3CCNCC3)nc2)c2cc[nH]c2n1 [Compound 178, 4-(6-(piperidin-4-yl)pyridin-3-yl)-1H-pyrrolo[2,3-b]pyridine]
